For this assay, the system named is PCA responses. In words: Rat Passive Cutaneous Anaphylaxis (PCA) test. It is filed as in vivo, Wistar rats. The protocol:
All of the compounds prepared in the preceding Examples were submitted for biological testing. The test system was the Rat Passive Cutaneous Anaphylaxis (PCA) test described below in (ii).
i. Serum containing heat labile homocytotropic antibody was raised in rats by a method similar to that used by Mota. (I. Mota Immunology 1964, 7, 681).
Male Wistar rats of 250-300g. were injected intraperitoneally with 0.5 of Bordatella pertussis vaccine (containing 4 × 10^10 dead organism per ml) and subcutaneously with 0.5ml of an emulsion of 100mg. of ovalbumin in 2ml of saline and 3ml of incomplete Freunds' adjuvant. Rats were bled by cardiac puncture on day 18, the blood was pooled and separated and serum stored at -20° and thawed only once before use.
ii. The P.C.A. test was similar to that described by Ovary and Bier (A. Ovary and O. E. Bier, Proc. Soc. Exp. Biol. Med. 1952, 81, 584) and Goose and Blair (J. Goose and AMJ. N. Blair, Immunology 1969, 16, 769).
0.1ml of each of six twofold serial dilutions of the serum in 0.9% saline were injected intradermally into separate sites on the shaved dorsal surface of 250-350g. Wistar rats. 72 hours later the animals were challenged by i.v. injection of 0.3ml of 1% ovalbumin mixed with 0.1ml of a 5% solution of pontamine sky blue dye both in isotonic saline buffered with pH. 7.2 Sorenson buffer (P.B.S.). The rats were killed after 20 minutes and the diameter of the blue wheals at the antibody injection sites were measured. The starting dilution of the serum was adjusted so that there was no response, after challenge, at the site of injection of the highest dilution and a maximum response at the lowest dilution. Typically, six twofold serial dilutions of the serum from 1/4 to 1/128 were used.
Compounds were tested for their ability to reduce the diameter of the wheals at the injection sites of dilutions of antibody which on all the controls have less than maximum response. Amounts of the compounds were administered to rats each amount to a test group of six animals at a specified time prior to intravenous challenge with ovalbumin. The diameters of the blue wheals which developed on the tests group of animals were compared with those on a control group of six animals treated in the same way as the test group, but which had not received the compound under test.
% Inhibition of P.C.A. = 100 (1 - a/b)
a = The mean of the sum of the diameters of the wheals produced in the test group of animals at those antibody sites where all the control group of animals gave less than maximum response.
b = The mean of the sum of diameters of the wheals produced in the control group of animals at those antibody sites where all the animals in the group gave less than maximum response.
The preferred method of administration was a solution of the test compound dissolved in pH 7.2 buffer and neutralised with sodium bicarbonate.

Where [1] appears, read: iv, time 0 mins prior to i.v. ovalbumin challenge.
Where [2] appears, read: iv, time 60 mins prior to i.v. ovalbumin challenge.
Where [3] appears, read: iv, time 10 mins prior to i.v. ovalbumin challenge.
The mark [4] stands for this setting: iv, time 30 mins prior to i.v. ovalbumin challenge.
Where [5] appears, read: first dose pair, only one time (0) printed for the whole line.
[6] abbreviates: second dose pair, time not printed separately.

Data on 15 molecules can be found in US3975535A, “Anti-allergic-3-carboxy-isocoumarin compositions and methods of use” (Beecham Group Limited, priority 1973, dated 1976).

Regarding `O=C(O)c1cc2ccc(Br)cc2c(=O)o1` [Example 6, 7-Bromoisocoumarin-3-carboxylic acid], under setting [1], the inhibition (commonly the change of the read-out against control, counted positive when it falls) at 25 mg/kg came to 26% and the inhibition at 100 mg/kg was found to be 39%. Under setting [2], the inhibition at 25 mg/kg was determined as 39% and the inhibition at 100 mg/kg was found to be 0%.
For `COc1ccc2cc(C(=O)O)oc(=O)c2c1OC` [Example 15, 7,8-Dimethoxyisocoumarin-3-carboxylic acid], under setting [3], the inhibition at 25 mg/kg came to 64% and the inhibition at 100 mg/kg came out at 63%. Under setting [4], the inhibition at 25 mg/kg stood at 12% and the inhibition at 100 mg/kg was 29%.
For the molecule `COc1cc2cc(C(=O)O)oc(=O)c2cc1OC` [Example 8, 6,7-Dimethoxyisocoumarin-3-carboxylic acid], under setting [1], the inhibition at 25 mg/kg amounted to 64% and the inhibition at 100 mg/kg is 84%. Moreover, under setting [4], the inhibition at 25 mg/kg was found to be 24% and the inhibition at 100 mg/kg turned out to be 24%.
For the molecule `Cc1cc2c(C)c(C(=O)O)oc(=O)c2cc1C` [Example 7, 4,6,7-Trimethylisocoumarin-3-carboxylic acid monohydrate], under setting [1], the inhibition at 25 mg/kg was found to be 10% and the inhibition at 100 mg/kg worked out at 15%. Moreover, under setting [4], the inhibition at 25 mg/kg was found to be 39% and the inhibition at 100 mg/kg turned out to be 49%.
As to `Cc1c(C(=O)O)sc(=O)c2ccccc12` [Example 13, 4-Methyl-2-thiaisocoumarin-3-carboxylic acid], under setting [1], the inhibition at 25 mg/kg is -6% and the inhibition at 100 mg/kg turned out to be 6%. Also, under setting [2], the inhibition at 25 mg/kg was found to be 6% and the inhibition at 100 mg/kg worked out at 19%.
For the molecule `O=C(O)c1cc2ccccc2c(=O)o1` [Example 1, Isocoumarin-3-carboxylic acid], under setting [1], the inhibition at 25 mg/kg was 29% and the inhibition at 100 mg/kg stood at 62%. For the same molecule, under setting [4], the inhibition at 25 mg/kg is -13% and the inhibition at 100 mg/kg worked out at 16%.
Taken in the same sequence, the figures for `COc1cc2cc(C(=O)O)[nH]c(=O)c2cc1OC` [Example 11, 6,7-Dimethoxyisocarbostyril-3-carboxylic acid] were 11%, 38%, 2% and 17%.
Taken in the same sequence, the figures for `O=C(O)c1cc2ccccc2c(=O)[nH]1` [Example 9, Isocarbostyril-3-carboxylic acid] were 21%, 36%, 15% and 25%.
For `COc1ccc2cc(C(=O)O)oc(=O)c2c1` [Example 5, 7-Methoxyisocoumarin-3-carboxylic acid], under setting [1], the inhibition at 25 mg/kg is 9% and the inhibition at 100 mg/kg was found to be 9%. Also, under setting [2], the inhibition at 25 mg/kg came out at 4% and the inhibition at 100 mg/kg was found to be 55%.
Take `Cc1c(C(=O)O)oc(=O)c2c(C)cccc12` [Example 4, 4,8-Dimethylisocoumarin-3-carboxylic acid]: under setting [1], the inhibition at 25 mg/kg was determined as 10% and the inhibition at 100 mg/kg was 12%. Also, under setting [4], the inhibition at 25 mg/kg is 8% and the inhibition at 100 mg/kg stood at 48%.
In the case of `Cc1cccc2cc(C(=O)O)oc(=O)c12` [Example 3, 8-Methylisocoumarin-3-carboxylic acid], the inhibition at 25 mg/kg by setting is: under setting [5], 44%; under setting [6], 15%. For the same molecule, the inhibition at 100 mg/kg by setting is: under setting [5], 66%; under setting [6], 28%.
For `COc1cc2cc(C(=O)O)sc(=O)c2cc1OC` [Example 14, 6,7-Dimethoxy-2-thiaisocoumarin-3-carboxylic acid], the inhibition at 12.5 mg/kg (iv, Dose 12.5 mg/Kg, time 10 mins prior to i.v. ovalbumin challenge) stood at 28%. Moreover, under setting [3], the inhibition at 25 mg/kg came out at 47% and the inhibition at 100 mg/kg amounted to 87%. Moreover, the inhibition at 50 mg/kg (iv, Dose 50 mg/Kg, time 10 mins prior to i.v. ovalbumin challenge) was 79%.
For the molecule `O=C(O)c1cc2ccccc2c(=O)s1` [Example 12, 2-Thiaisocoumarin-3-carboxylic acid], under setting [1], the inhibition at 25 mg/kg worked out at 0% and the inhibition at 100 mg/kg is 22%. Besides, under setting [2], the inhibition at 25 mg/kg came to 4% and the inhibition at 100 mg/kg amounted to 14%.
For `Cc1c(C(=O)O)oc(=O)c2ccccc12` [Example 2, 4-Methylisocoumarin-3-carboxylic acid], the inhibition at 25 mg/kg under setting [1] was -3% and the inhibition at 25 mg/kg under setting [4] came out at 0%. Further, the inhibition at 100 mg/kg is, setting by setting: under setting [1], 41%; under setting [4], 10%.
For `Cc1c(C(=O)O)[nH]c(=O)c2ccccc12` [Example 10, 4-Methylisocarbostyril-3-carboxylic acid] the same measures were 12%, -13%, 26% and 21%.
